US8410302B2, “Methoxyimino compounds and fungicide composition comprising same” (Kyung Nong Corporation, priority 2007, dated 2013)
Where two headings read alike, the source gives them in different places.

What was measured:
[1] = system: Pyricularia oryzae Carvara KA301; test: whole plant or invertebrate; assay type: in vivo; settings: for RCB control value (C.V.): rice blast
Botrytis cinerae = test: Fungicidal activity against cucumber gray mold rot (CGM) disease, control value; assay type: in vivo
Phytophthora infestans = test: whole plant or invertebrate; assay type: in vivo; settings: for TLB control value (C.V.): tomato late blight
Puccinia recondita = test: Fungicidal activity against wheat leaf rust (WLR) disease, control value; assay type: in vivo
Erysiphae graminis = test: Fungicidal activity against barley powdery mildew (BPM) disease, control value; assay type: in vivo
Rhizoctonia solani AG-1 = test: Fungicidal activity against rice sheath blight (RSB) disease, control value; settings: for RSB control value (C.V.): rice sheath blight
[2] = Pyricularia oryzae, read-out: RCB control value (C.V.)
[3] = Phytophthora infestans, in Solanum lycopersicum, read-out: TLB control value (C.V.)
[4] = Rhizoctonia solani, AG1, in Oryza sativa, read-out: RSB control value (C.V.)
[5] = 100 ppm, cucumber gray mold rot

CO/N=C(/C(=O)OC)c1ccccc1COc1ccccc1C [Kresoxim-methyl, reference compound]
pest or weed control at 0.4 ppm [1, 2]: 30% | pest or weed control at 2 ppm [1, 2]: 60% | pest or weed control at 10 ppm [1, 2]: 95% | pest or weed control at 50 ppm [1, 2]: 100% | pest or weed control at 50 ppm (Botrytis cinerae; Botrytis, 50 ppm, read-out: CGM control value (C.V.)): 30% | pest or weed control at 0.4 ppm (Phytophthora infestans; [3]): 30% | pest or weed control at 2 ppm (Phytophthora infestans; [3]): 80% | pest or weed control at 10 ppm (Phytophthora infestans; [3]): 95% | pest or weed control at 50 ppm (Phytophthora infestans; [3]): 100% | pest or weed control at 0.4 ppm (Puccinia recondita; Puccinia recondita, 0.4 ppm, read-out: WLR control value (C.V.)): 85% | pest or weed control at 2 ppm (Puccinia recondita; Puccinia recondita, 2 ppm, read-out: WLR control value (C.V.)): 95% | pest or weed control at 10 ppm (Puccinia recondita; Puccinia recondita, 10 ppm, read-out: WLR control value (C.V.)): 100% | pest or weed control at 50 ppm (Puccinia recondita; Puccinia recondita, 50 ppm, read-out: WLR control value (C.V.)): 100% | pest or weed control at 0.4 ppm (Erysiphae graminis; 168 h, 0.4 ppm, read-out: BPM control value (C.V.)): 95% | pest or weed control at 2 ppm (Erysiphae graminis; 168 h, 2 ppm, read-out: BPM control value (C.V.)): 100% | pest or weed control at 10 ppm (Erysiphae graminis; 168 h, 10 ppm, read-out: BPM control value (C.V.)): 100% | pest or weed control at 50 ppm (Erysiphae graminis; 168 h, 50 ppm, read-out: BPM control value (C.V.)): 100% | pest or weed control at 0.4 ppm (Rhizoctonia solani AG-1; [4]): 67% | pest or weed control at 2 ppm (Rhizoctonia solani AG-1; [4]): 90% | pest or weed control at 10 ppm (Rhizoctonia solani AG-1; [4]): 98% | pest or weed control at 50 ppm (Rhizoctonia solani AG-1; [4]): 100%

CNC(=O)/C(=N/OC)c1ccccc1CON=C(C)c1cccc(C=C(F)F)c1 [Example 28, (E)-2-[[[[[2-[3-(2,2-difluorovinyl)phenyl](1-methyl)methylidene]amino]oxy]methyl]phenyl]-2-methoxyimino-N-methylacetamide]
RCB control value (C.V.) ([1]; 50 ppm): 70% | RCB control value (C.V.) ([1]; 100 ppm): 95% | CGM control value (C.V.) (Botrytis cinerae; [5]): 50% | TLB control value (C.V.) (Phytophthora infestans; 100 ppm): 60% | WLR control value (C.V.) (Puccinia recondita; 2 ppm, wheat leaf rust): 40% | WLR control value (C.V.) (Puccinia recondita; 10 ppm, wheat leaf rust): 90% | WLR control value (C.V.) (Puccinia recondita; 50 ppm, wheat leaf rust): 100% | WLR control value (C.V.) (Puccinia recondita; 100 ppm, wheat leaf rust): 100% | BPM control value (C.V.) (Erysiphae graminis; 50 ppm, barley powdery mildew): 60% | BPM control value (C.V.) (Erysiphae graminis; 100 ppm, barley powdery mildew): 90% | RSB control value (C.V.) (Rhizoctonia solani AG-1; 100 ppm): 35%

CO/N=C(/C(=O)OC)c1ccccc1CON=C(C)c1ccc(C=C(Br)Br)cc1 [Example 25, methyl-(E)-2-[[[[[2-[4-(2,2-dibromovinyl)phenyl](1-methyl)methylidene]amino]oxy]methyl]phenyl]-2-methoxyiminoacetate]
RCB control value (C.V.) ([1]; 2 ppm): 100% | RCB control value (C.V.) ([1]; 10 ppm): 100% | RCB control value (C.V.) ([1]; 50 ppm): 100% | RCB control value (C.V.) ([1]; 100 ppm): 100% | CGM control value (C.V.) (Botrytis cinerae; [5]): 35% | TLB control value (C.V.) (Phytophthora infestans; 2 ppm): 93% | TLB control value (C.V.) (Phytophthora infestans; 10 ppm): 100% | TLB control value (C.V.) (Phytophthora infestans; 50 ppm): 100% | TLB control value (C.V.) (Phytophthora infestans; 100 ppm): 100% | WLR control value (C.V.) (Puccinia recondita; 2 ppm, wheat leaf rust): 100% | WLR control value (C.V.) (Puccinia recondita; 10 ppm, wheat leaf rust): 100% | WLR control value (C.V.) (Puccinia recondita; 50 ppm, wheat leaf rust): 100% | WLR control value (C.V.) (Puccinia recondita; 100 ppm, wheat leaf rust): 100% | BPM control value (C.V.) (Erysiphae graminis; 2 ppm, barley powdery mildew): 100% | BPM control value (C.V.) (Erysiphae graminis; 10 ppm, barley powdery mildew): 100% | BPM control value (C.V.) (Erysiphae graminis; 50 ppm, barley powdery mildew): 100% | BPM control value (C.V.) (Erysiphae graminis; 100 ppm, barley powdery mildew): 100% | RSB control value (C.V.) (Rhizoctonia solani AG-1; 2 ppm): 90% | RSB control value (C.V.) (Rhizoctonia solani AG-1; 10 ppm): 98% | RSB control value (C.V.) (Rhizoctonia solani AG-1; 50 ppm): 100% | RSB control value (C.V.) (Rhizoctonia solani AG-1; 100 ppm): 100%

CO/N=C(/C(=O)OC)c1ccccc1COc1cccc(C=C(Cl)Br)c1 [Example 15, methyl-(2E)-2-(2-((3-(2-bromo-2-chlorovinyl)phenoxy)methyl)phenyl)-2-methoxyiminoacetate]
pest or weed control at 2 ppm [1, 2]: 70% | pest or weed control at 10 ppm [1, 2]: 100% | pest or weed control at 50 ppm [1, 2]: 100% | pest or weed control at 100 ppm [1, 2]: 100% | pest or weed control at 100 ppm (Botrytis cinerae; Botrytis, 100 ppm, cucumber gray mold rot, read-out: CGM control value (C.V.)): 50% | pest or weed control at 10 ppm (Phytophthora infestans; [3]): 10% | pest or weed control at 50 ppm (Phytophthora infestans; [3]): 90% | pest or weed control at 100 ppm (Phytophthora infestans; [3]): 100% | pest or weed control at 2 ppm (Puccinia recondita; 2 ppm, wheat leaf rust, read-out: WLR control value (C.V.)): 100% | pest or weed control at 10 ppm (Puccinia recondita; 10 ppm, wheat leaf rust, read-out: WLR control value (C.V.)): 100% | pest or weed control at 50 ppm (Puccinia recondita; 50 ppm, wheat leaf rust, read-out: WLR control value (C.V.)): 100% | pest or weed control at 100 ppm (Puccinia recondita; 100 ppm, wheat leaf rust, read-out: WLR control value (C.V.)): 100% | pest or weed control at 2 ppm (Erysiphae graminis; Hordeum vulgare, 168 h, 2 ppm, barley powdery mildew, read-out: BPM control value (C.V.)): 15% | pest or weed control at 10 ppm (Erysiphae graminis; Hordeum vulgare, 168 h, 10 ppm, barley powdery mildew, read-out: BPM control value (C.V.)): 60% | pest or weed control at 50 ppm (Erysiphae graminis; Hordeum vulgare, 168 h, 50 ppm, barley powdery mildew, read-out: BPM control value (C.V.)): 93% | pest or weed control at 100 ppm (Erysiphae graminis; Hordeum vulgare, 168 h, 100 ppm, barley powdery mildew, read-out: BPM control value (C.V.)): 95% | pest or weed control at 100 ppm (Rhizoctonia solani AG-1; [4]): 10%
